The text below walks through data of patent US10872410B2, “Methods and apparatus for assessing immune system activity and therapeutic efficacy” (Animantis, LLC, priority 2016, dated 2020).

The test system of this experiment is cell population sets. Briefly: Directional displacement of cell population sets measured with the immune platform (FIG. 7). The class given is cell-based. Particulars: conditions unstimulated, LPS, TNF, effect of presence of the stimulus. An excerpt:
FIG. 7 is a graphical representation of the directional displacement of cell population sets as measured using an embodiment of the immune platform described herein. […]

Take lipopolysaccharide [LPS]: the “directional displacement of cell population sets” value is “greatly affected”.
With tumor necrosis factor [TNF], the “directional displacement of cell population sets” value was “minimally affected”.
